Where two headings read alike, the source gives them in different places.
Assays:
[1] = Cataleptic activity (Courvoisier's method); details: in vivo, sc, rat
Experimental: According to the Courvoisier's method (Courvoisier, S, Durcot, R. & Jolou, L, (1957), Psychotropic drugs (Ed. Garattini, S and Ghetti, V.), p. 373, Else vier Publishing Company, Amsterdam, London, New York, Princeton), the four limbs of a rat were placed on four rubber stoppers and when the rat could maintain the same pose for 30 seconds, the rat was determined to be positive. The catalepsy was measured every 30 minutes till 240 minutes after the subcutaneous administration of the sample. The sample that produced a positive response in rat even once was determined to be positive in the cataleptic test. From the relation between the positive response and the amount of the sample, ED50 (mg/kg) was determined.

[2] = test system: emesis induced by apomorphine; assay: Antiemetic activity, oral (apomorphine-induced emesis); assay type: in vivo, dog; details: for ED50: Canis lupus familiaris, po, dog, p.o. in capsules with lactose, 90 min before apomorphine 0.1 mg/kg s.c., Table II; for Activity efficiency (ED50 p.o/ED50 s.c): antiemetic ED50, dog
Experimental: 2. Oral administration: Each of the test samples was mixed with lactose and was filled in capsules. The capsules were orally administered to a dog, 0.1 mg./kg. of apomorphine was administered to the dog by subcutaneous injection after 90 minutes, and then the frequency of emesis was measured within 30 minutes after the apomorphine injection. (Each dog was used only once.) The drugs were evaluated by ED50 values in the same way as described in Experiment I-a.

[3] = test system: emesis induced by apomorphine; assay: Antiemetic activity, subcutaneous (apomorphine-induced emesis); assay type: in vivo, dog; details: for ED50: Canis lupus familiaris, sc, read-out: Antiemetic activity ED50 (s.c); for Antiemetic activity ED50 (s.c): Table II
Experimental: Each of the test samples was administered to a dog by subcutaneous injection; then 0.1 mg./kg. of apomorphine was administered to a dog by subcutaneous injection after 30 minutes, and the frequency of emesis within 30 minutes after the injection was measured. (Each dog was used only once). From the frequency of emesis, the inhibition rate was calculated and from the relation between the amount of the sample used and the inhibition rate, ED50 (μg/kg.) was determined. Drug activity was assessed by ED50 values.
1. Subcutaneous administration:
Same as Experiment (I-a).

in vivo = details: for selectivity ratio: LD50 mouse i.v. / antiemetic ED50 dog s.c., x 1/1000, Table I, read-out: Safety margin (LD50/ED50); for LD50 at 168 h: iv, mouse, i.v. tail injection, mortality after one week, Table I, read-out: Toxicity LD50
Experimental: Each of the test samples was injected intravenously to a mouse in the tail portion at a rate of 0.1 ml./10 g./10 sec. by an up and down method. The mortality rate after one week was checked and from the relation between the amount of the sample used and the mortality rate, LD50 (mg/kg) was determined.

gastric motility = details: in vivo; cited from earlier work
catalepsy = details: in vivo; cited from earlier work
emesis = details: in vivo; cited from earlier work
[4] = test system: spontaneous motility of the stomach; assay: Effect of stimulating gastric motility (ballon method); assay type: in vivo; details: anesthetized dog, i.v.; Table III
Experimental: After anesthetizing a dog which had fasted overnight by intravenously injecting 30 mg./kg. of pentobarbital, each of the test samples was injected intravenously and then the spontaneous motility of the stomach was recorded by means of a polygraph (RM-150, made by Nihon Koden K. K.) according to the ballon method (Jap. J. Smooth Muscle Res., 2, 15(1966)). In addition, the effect of stimulating the gastric motility was denoted as (+) and (++) respectively when 10 mg./kg. and 5 mg./kg. each of the sample was intervenously injected and the stimulated motility of the stomach continued longer than 20 minutes.

[5] = s.c., every 30 min till 240 min, symbol of Table II, read-out: Catalepsy ED50 (not measurable, symbol)
[6] = dog, s.c., 30 min before apomorphine 0.1 mg/kg s.c., Table I
[7] = dog, s.c., 30 min before apomorphine 0.1 mg/kg s.c.

Structure (SMILES) | ED50 at 4 h [1, 5] [mg/kg] | ED50 [2] [mg/kg] | Activity efficiency (ED50 p.o/ED50 s.c) [2] | ED50 [3, 6] [mg/kg] | selectivity ratio (in vivo) | LD50 at 168 h (in vivo) [mg/kg] | ED50 at 4 h [1] [mg/kg] | Antiemetic activity ED50 (s.c) [3, 7] [µg/kg] | Effect on gastric motility, literature (gastric motility) | Catalepsy, literature (catalepsy) | Antiemetic activity, literature (emesis) | Effect of stimulating gastric motility [4] | ED50 at 4 h ([1]; s.c., every 30 min till 240 min, Table II, read-out: Catalepsy ED50) [mg/kg] | ED50 [3] [mg/kg]
CCN1CCCC1CNC(=O)c1nc(Cl)c(N)nc1OC (centres unmarked) [N-(1-ethylpyrrolidin-2-ylmethyl)-5-amino-6-chloro-3-methoxypyrazine-2-carboxamide] | > 100 | 0.004 | 2.0 | 0.002 | 45700 | 91.3 | – | – | – | – | – | – | – | –
CCNc1nc(OC)c(C(=O)NCC2CCCN2C)nc1Cl (centres unmarked) [N-(1-methylpyrrolidin-2-ylmethyl)-6-chloro-5-ethylamino-3-methoxypyrazine-2-carboxamide] | – | – | – | 0.003 | 15000 | 45 | – | – | – | – | – | – | – | –
CCN(CC)CCNC(=O)c1cc(Cl)c(N)cc1OC [metoclopramide, N-(diethylaminoethyl)-4-amino-5-chloro-2-methoxybenzamide, reference compound] | – | 0.13 | – | 0.03 | – | 61 | 45 | 30 | effect of stimulating gastric motility | produces catalepsy as a side effect | stronger antiemetic activity than chlorpromazine | – | – | –
CCN(CC)CCNC(=O)c1nc(Cl)c(NC)nc1OC [N-(2-diethylaminoethyl)-6-chloro-3-methoxy-5-methylaminopyrazine-2-carboxamide] | – | – | – | 0.01 | 9100 | 91 | – | – | – | – | – | – | – | –
CCN(CC)CCNC(=O)c1nc(Cl)c(Nc2ccccc2)nc1OC [N-(2-diethylaminoethyl)-5-anilino-6-chloro-3-methoxypyrazine-2-carboxamide] | – | – | – | – | – | – | – | – | – | – | – | + to ++ | – | –
CN(C)CCCN1c2ccccc2Sc2ccc(Cl)cc21 [chlorpromazine, reference compound] | – | 2 | 8.0 | – | 290 | 71.4 | – | 250 | – | – | – | – | 7 | 0.25
CCN1CCCC1CNC(=O)c1nc(Cl)cnc1OC (centres unmarked) [N-(1-ethylpyrrolidin-2-ylmethyl)-5-chloro-2-methoxypyrazine-3-carboxamide] | – | – | – | 0.02 | 8500 | 170 | – | – | – | – | – | – | – | –
CCNc1nc(OC)c(C(=O)NCC2CCCN2CC)nc1Cl (centres unmarked) [N-(1-ethylpyrrolidin-2-ylmethyl)-6-chloro-5-ethylamino-3-methoxypyrazine-2-carboxamide] | > 100 | 0.006 | 2.3 | 0.0026 | 23500 | 61.1 | – | 2.6 | – | – | – | – | – | –
CCOc1nc(N)c(Cl)nc1C(=O)NCCN(CC)CC [N-(2-diethylaminoethyl)-5-amino-6-chloro-3-ethoxypyrazine-2-carboxamide] | – | – | – | 0.012 | 6010 | 72.1 | – | – | – | – | – | – | – | –
CCNc1nc(OC)c(C(=O)NCCN(CC)CC)nc1Cl [N-(2-diethylaminoethyl)-6-chloro-5-ethylamino-3-methoxypyrazine-2-carboxamide] | > 100 | 0.065 | 3.3 | 0.02 | 4550 | 91 | – | 20 | – | – | – | + to ++ | – | –
CCN(CC)CCNC(=O)c1nc(Cl)c(N)nc1OC [N-(2-diethylaminoethyl)-5-amino-6-chloro-3-methoxypyrazine-2-carboxamide] | > 100 | 0.07 | 5.8 | 0.012 | 12500 | 150 | – | 12 | – | – | – | – | – | –
